Experimental data as given in patent US20060008574A1, “Galactosyl isomalt, method for production and use thereof” (priority 2002, published 2006).
Where two headings read alike, the source gives them in different places.

Tests used:
[1] = Stability in the stomach: hydrolysis rate at pH 2.0; type: physicochemical; details: 1% solution, 10 mmol/L hydrochloric acid, pH 2.0, 37° C.
Description: The stability of a substance in the gastric passage can be simulated by determining the hydrolysis rate at pH 2.0. Sucrose and 1-kestose are used as controls.
In each case a 1% solution of the trisaccharides (DP 3) from Example 4 is incubated with 10 mmol/L hydrochloric acid, pH 2.0 at 37° C. for 3 h. Samples are taken from the reaction mixture after 60, 120 and 180 min and are analyzed by basic anion exchange chromatography, HPAEC.

lactase = assay: Stability with respect to lactase; type: in vitro ADME; details: 0.9 unit lactase, 1% solution, 37° C., 6 h
Description: The enzyme lactase that is present at the mucosa in the small intestine serves in vivo to break down lactose that gets into the small intestine and the resulting monosaccharides are absorbed into the bloodstream through the intestinal wall.
The enzyme lactase is isolated in a modified method of Wallenfels, K., and Fischer, J. (Z. Physiologische Chemie 321 (1960) 223).
Solutions 1-5: see Example 8c)
Solution 6: 1% solution of lactose in solution 1
Solution 7: 1% solution of isomalt in solution 1
Solution 8: Lactase in solution 1
(solutions 2-7), mixed and incubated at 37° C. The reaction is stopped after 6 h by heating to 95° C. for 15 min.

[2] = tested on: pancreatin enzyme (Sigma); assay: Stability with respect to pancreatic enzymes; type: in vitro ADME; details: 1% solution, 0.2% pancreatin, pH 7.0, 210 min at 37° C.
Description: The pancreatic secretion contains a large number of hydrolases, including carbohydrate-degrading enzymes like α-amylase, which breaks down α-1,4-glucans (starch, glycogen) preferably to maltose and maltooligosaccharides. The test of the stability of saccharides with respect to pancreatic enzymes is carried out as follows.
3.0 mL of a carbohydrate solution (solution 2 to solution 6) is mixed with 0.1 mL of the enzyme solution (solution 7) per batch:
Solution 1: 20 mmol/L Na phosphate buffer, pH 7.0, with 6 mmol/L NaCl
Solution 2: 1% solution of β-1,4-galactosyl isomalt mixture in accordance with the invention, prepared according to Example 2 and Example 4, in solution 1
Solution 3: 1% solution of β-1,3-galactosyl isomalt mixture in accordance with the invention, prepared according to Example 1 and Example 4, in solution 1
Solution 4: 1% solution of β-1,6-galactosyl isomalt mixture in accordance with the invention; prepared according to Example 3 and Example 4, in solution 1
Solution 6: 1% starch solution (soluble starch, according to Zulkowski), in solution 1
Solution 7: 0.2% pancreatin enzyme (Sigma), dissolved in solution 1
After 210 min incubation in a thermomixer (interval shaking) at 37° C., the reaction is stopped by heating to 95° C. for 15 min and the samples are analyzed by HPAEC. The starch-containing sample (solution6+solution 7) is completely hydrolyzed before the HPAEC analysis by heating for 3 h in 1 mol/L hydrochloric acid at 95° C., and the glucose resulting from this is determined in order to calculate the starch content of the sample.

human feces = assay: In vitro fermentation in human feces; type: cell-based; details: for Degradation rate: 0.5% (w/v) substrate, feces suspension, anaerobic, 37° C.; for Butyrate content (end sample): end of fermentation with human feces
Description: Incubation of carbohydrates with human feces allows statements to be made about the rate of metabolization by the bacterial population and formation of the short-chain fatty acid butyric acid.
To invest the fermentability in an in vitro fermentation experiment, Raftilose® P95 (fructooligosaccharides, DP4-5), galactosyl lactose (Oligomate DP 3) and lactosucrose were used for comparison as carbohydrates of similar structure and degree of polymerization, in addition to β-galactosyl isomalts.
An anaerobic medium of the following composition was used for the in vitro experiments:
9 mL of the anaerobic medium 1 described above are mixed with 0.5% (w/v) of the galactosyl isomalts to be tested (prepared according to Examples 1-3) and the corresponding controls lactosucrose and galactosyl lactose and then inoculated with 1 mL of a 10% feces suspension (mixed feces from two subjects) in anaerobic 50 mmol/L phosphate buffer, pH 7.0, to which 0.5 g/L cysteine/HCl was added beforehand as reducing agent.
The batches are then incubated in “Hungate” test tubes for a maximum of 28 h while shaking at 37° C. Samples are taken at various times and tested for content of residual oligosaccharides, short-chain fatty acids, lactic acid and pH.

[3] = tested on: glucoamylase/maltase (GM complex); assay: Stability with respect to small intestine α-glucosidases: glucoamylase/maltase; details: 120 min incubation
Description: (§1) Solution 1: 0.1 mol/L triethanolamine (TEA) buffer, pH 7.0
(§2) Solution 11: Glucoamylase/maltase enzyme complex in solution 1
(§3) i) 0.7 unit of the enzyme complex saccharase/isomaltase (solution 10) or glucoamylase/maltase (solution 11) was added in each case to 1.0 mL of a carbohydrate solution heated to 37° C. (solution 2 to solution 8), mixed and incubated at 37° C.
(§4) ii) For incubation under more severe conditions, 16 units of the enzyme complex saccharase/isomaltase or 13 units of the enzyme complex glucoamylase/maltase were used. The reaction was stopped after 2 h by heating to 95° C. for 15 min. The resulting monosaccharides and the undegraded saccharides of the relevant batches were quantitatively determined by HPAEC.

[4] = target: saccharase/isomaltase (SI complex) (Sus scrofa, UniProt P56729); assay: Stability with respect to small intestine α-glucosidases: saccharase/isomaltase; details: 120 min incubation
Chain of saccharase/isomaltase (SI complex) (P56729 with tags, fused parts or gaps limits assumed): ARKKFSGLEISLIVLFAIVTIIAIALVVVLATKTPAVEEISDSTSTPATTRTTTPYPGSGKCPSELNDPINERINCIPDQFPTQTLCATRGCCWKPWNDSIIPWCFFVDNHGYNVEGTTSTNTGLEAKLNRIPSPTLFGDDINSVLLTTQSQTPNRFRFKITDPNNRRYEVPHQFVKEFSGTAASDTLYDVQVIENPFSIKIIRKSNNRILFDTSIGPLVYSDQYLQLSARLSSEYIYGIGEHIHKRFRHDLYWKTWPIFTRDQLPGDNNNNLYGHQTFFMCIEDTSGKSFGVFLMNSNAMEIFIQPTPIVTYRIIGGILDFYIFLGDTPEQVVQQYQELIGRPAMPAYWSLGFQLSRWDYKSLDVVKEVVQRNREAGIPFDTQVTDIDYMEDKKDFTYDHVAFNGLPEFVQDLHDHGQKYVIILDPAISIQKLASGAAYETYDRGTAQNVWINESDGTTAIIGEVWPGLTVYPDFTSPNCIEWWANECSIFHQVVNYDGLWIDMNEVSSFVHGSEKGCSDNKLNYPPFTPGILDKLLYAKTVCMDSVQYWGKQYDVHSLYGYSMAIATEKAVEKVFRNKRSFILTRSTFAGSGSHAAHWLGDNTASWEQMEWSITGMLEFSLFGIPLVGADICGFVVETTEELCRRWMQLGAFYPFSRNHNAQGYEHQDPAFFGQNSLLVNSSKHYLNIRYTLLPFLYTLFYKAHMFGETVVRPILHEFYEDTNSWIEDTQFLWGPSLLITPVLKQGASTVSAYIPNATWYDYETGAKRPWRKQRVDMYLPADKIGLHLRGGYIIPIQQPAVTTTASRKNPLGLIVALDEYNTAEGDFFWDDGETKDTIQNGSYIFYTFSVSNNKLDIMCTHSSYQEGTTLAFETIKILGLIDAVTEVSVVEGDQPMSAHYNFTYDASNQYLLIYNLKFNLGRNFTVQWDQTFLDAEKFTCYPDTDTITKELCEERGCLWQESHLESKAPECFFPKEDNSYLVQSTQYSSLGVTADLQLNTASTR
Chain of saccharase/isomaltase (SI complex) (P56729 with tags, fused parts or gaps limits assumed): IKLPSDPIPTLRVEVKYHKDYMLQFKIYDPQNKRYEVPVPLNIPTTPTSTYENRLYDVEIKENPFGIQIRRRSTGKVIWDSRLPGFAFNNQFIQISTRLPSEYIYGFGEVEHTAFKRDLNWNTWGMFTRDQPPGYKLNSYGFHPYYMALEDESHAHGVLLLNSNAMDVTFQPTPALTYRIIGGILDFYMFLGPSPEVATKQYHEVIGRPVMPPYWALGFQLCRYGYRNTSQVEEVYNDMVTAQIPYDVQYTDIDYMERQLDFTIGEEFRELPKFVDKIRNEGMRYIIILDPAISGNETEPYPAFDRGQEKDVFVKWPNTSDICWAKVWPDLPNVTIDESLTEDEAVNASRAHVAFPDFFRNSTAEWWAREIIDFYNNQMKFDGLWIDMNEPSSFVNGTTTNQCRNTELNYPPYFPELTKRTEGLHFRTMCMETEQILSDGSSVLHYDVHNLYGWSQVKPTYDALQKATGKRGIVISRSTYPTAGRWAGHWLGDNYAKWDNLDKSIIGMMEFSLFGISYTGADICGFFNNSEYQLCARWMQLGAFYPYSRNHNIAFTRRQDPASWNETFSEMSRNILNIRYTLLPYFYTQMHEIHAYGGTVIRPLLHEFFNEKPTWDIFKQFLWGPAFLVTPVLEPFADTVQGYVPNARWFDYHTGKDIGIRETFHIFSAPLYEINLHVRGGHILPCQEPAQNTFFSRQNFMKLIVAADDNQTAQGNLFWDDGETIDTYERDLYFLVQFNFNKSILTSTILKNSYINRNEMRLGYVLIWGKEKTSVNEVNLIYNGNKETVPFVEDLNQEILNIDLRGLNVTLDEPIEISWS
Description: Solution 6: 1% solution of maltose in solution 1
Solution 7: 1% solution of sucrose in solution 1
Solution 8: 1% solution of isomalt in solution 1
Solution 9: 1% solution of isomaltulose in solution 1
Solution 10: Saccharase/isomaltase enzyme complex in solution 1

[5] = tested on: glucoamylase/maltase (GM complex)
Description: as §1, §2, §3, §4

[6] = Standard (0.7 unit), 37° C., pH 7.0

Row | Molecule | Hydrolysis rate [%] ([1]; incubation time 0 min) | Hydrolysis rate [%] ([1]; incubation time 60 min) | Hydrolysis rate [%] ([1]; incubation time 120 min) | Hydrolysis rate [%] ([1]; incubation time 180 min) | Hydrolysis rate [%], incubation with lactase (lactase) | Degradation rate (human feces; incubation time 7 (h)) | Degradation rate (human feces; incubation time 22 (h)) | Hydrolysis rate [%] [3, 6] | Butyrate content (end sample) (human feces) | also measured
1 | OCC1O[C@@H](O[C@@H]2C(CO)O[C@H](OC[C@@H](O)[C@@H](O)[C@H](O)C(O)CO)C(O)C2O)C(O)C(O)[C@H]1O (mixture of isomers) [β-1,4-Galactosyl isomalt, β-D-galactosyl-(1→4)-α-D-glucosyl-(1→6)-D-sorbitol (β-1,4-galactosyl-1,6-GPS) and β-D-galactosyl-(1→4)-α-D-glucosyl-(1→1)-D-mannitol(β-1,4-galactosyl-1,1-GPM)] | 0% | 0% | 0% | <1% | 13.4% | 61% | 97.7% | 0% | – | Decomposition rate [%] [2]: <1%; Degradation rate (human feces; incubation time 28 (h)): 96%; Hydrolysis rate [%] ([3]; More stringent (13 units)): 0%
2 | OCC1O[C@@H](OCC2O[C@H](OC[C@@H](O)[C@@H](O)[C@H](O)C(O)CO)C(O)C(O)[C@@H]2O)C(O)C(O)[C@H]1O (mixture of isomers) [β-1,6-Galactosyl isomalt, β-D-galactosyl-(1→6)-α-D-glucosyl-(1→6)-D-sorbitol(β-1,6-galactosyl-1,6-GPS) and β-D-galactosyl-(1→6)-α-D-glucosyl-(1→1)-D-mannitol(β-1,6-galactosyl-1,1-GPM)] | 0% | 0% | 0% | <1% | 9.3% | 64.2% | 96.1% | 0% | 15.3 mmol/L | Decomposition rate [%] [2]: <1%; Degradation rate (human feces; incubation time 28 (h)): 99.2%; Hydrolysis rate [%] ([3]; More stringent (13 units)): 0%
3 | OC[C@H]1O[C@@](CO)(OC[C@@]2(O[C@H]3O[C@H](CO)[C@@H](O)[C@H](O)[C@H]3O)O[C@H](CO)[C@@H](O)[C@@H]2O)[C@@H](O)[C@@H]1O [1-Kestose, reference compound] | 0% | 11% | 25% | 36% | – | – | – | – | – | –
4 | OC[C@H]1O[C@H](OC[C@H]2O[C@](O)(CO)[C@@H](O)[C@@H]2O)[C@H](O)[C@@H](O)[C@@H]1O [Isomaltulose, 6-O-α-D-glucopyranosyl-(1→6)-β-D-fructofuranose] | – | – | – | – | – | – | – | – | – | Hydrolysis rate [%] ([4]; More stringent (16 units)): 79.0%; Hydrolysis rate [%] [4, 6]: 18.0%; Hydrolysis rate [%] [5]: 39.9%; Hydrolysis rate [%] ([5]; pH 7): 3.1%
5 | OC[C@H]1O[C@@H](O[C@H]2[C@H](O)[C@@H](O)C(O)O[C@@H]2CO)[C@H](O)[C@@H](O)[C@H]1O (some centres unmarked) [Lactose, reference compound] | – | – | – | – | 95.6% | – | – | – | – | Hydrolysis rate [%], incubation with lactase (lactase; listed as lactose): Nearly complete hydrolysis
6 | OC[C@H]1O[C@@H](O[C@H]2[C@H](O)[C@@H](O)[C@@H](O[C@]3(CO)O[C@H](CO)[C@@H](O)[C@@H]3O)O[C@@H]2CO)[C@H](O)[C@@H](O)[C@H]1O [Lactosucrose, reference compound] | – | – | – | – | – | 98.9% | – | – | 6.5 mmol/L | content of butyrate formed at the end of the fermentations (human feces): about 6 mmol/L; Degradation rate (human feces; incubation time 7 (h), listed as lactosucrose): nearly completely metabolized; Degradation rate (human feces; incubation time 14 (h)): 100%
7 | OC[C@H]1O[C@H](O[C@H]2[C@H](O)[C@@H](O)[C@H](O)O[C@@H]2CO)[C@H](O)[C@@H](O)[C@@H]1O [Maltose] | – | – | – | – | – | – | – | Nearly complete hydrolysis | – | –
8 | OC[C@H]1O[C@@](CO)(O[C@H]2O[C@H](CO)[C@@H](O)[C@H](O)[C@H]2O)[C@@H](O)[C@@H]1O [Sucrose, reference compound] | 0% | 2% | 5% | 8% | – | – | – | – | – | Hydrolysis rate [%] ([4]; Standard (0.7 unit), 37° C., pH 7.0, listed as saccharose): Nearly complete hydrolysis
9 | Isomalt | – | – | – | – | – | – | – | – | – | Hydrolysis rate [%] ([4]; More stringent (16 units)): 52.4%; Hydrolysis rate [%] ([4]; More stringent (16 units), listed as isomalt): 52%; Hydrolysis rate [%] [4, 6]: 3.5%; Hydrolysis rate [%] ([4]; Standard (0.7 unit), 37° C., pH 7.0, listed as isomalt): partially broken down; Hydrolysis rate [%] [5]: 12.8%; Hydrolysis rate [%] ([5]; pH 7): 0%
10 | galactosyl lactose [Galactosyl-Lactose (Oligomate DP 3), reference compound] | – | – | – | – | – | 96.6% | 100% | – | 6.3 mmol/L | content of butyrate formed at the end of the fermentations (human feces): about 6 mmol/L; Degradation rate (human feces; incubation time 7 (h), listed as galactosyl lactose): nearly completely metabolized; Degradation rate (human feces; incubation time 14 (h)): 99.5%
